For one experiment, the system named is DR-GFP U2OS cells. Nature of the experiment: HR assay (GFP fluorescence by flow cytometry after I-SceI transfection). The class given is cell-based. The following applies: Homo sapiens, 25 μM inhibitor, 72 hours after transfection. Here is the method: DR-GFP U2OS cells (Methods in Molecular Biology 2012, 920, 379.) were transfected with 2.5 μg of I-SceI-expressing pCAGGS vector and treated with the inhibitors at 25 μM concentration. 72 hours after the transfection, the cells were trypsinized and resuspended in 3% BSA in PBS. GFP fluorescence detection was carried out using a BD FACSVerse flow cytometer and data analyzed with FlowJo software.

The target in a further experiment is MRE11 (Homo sapiens (Human), UniProt P49959). Nature of the experiment: HTS nuclease assay (fluorescence-quenched 5′ overhang DNA substrate cleavage). The class given is biochemical. Conditions: 18 nM MRE11, 40 nM DNA substrate, analysis at t=4 h. Here is the method:
DNA Substrate Preparation
The DNA substrate is prepared by mixing the oligonucleotides listed below in a 1:1 ratio to reach a final concentration of 6 μM in a buffer containing 50 mM Tris pH 7.5, 100 mM NaCl and 8 mM MgCl2.
The mixture is heat for 3 min at 65° C. and let to cool down slowly to RT. Then it is stored at −20° C.
This substrate is a 5′ overhang, which is a preferred substrate of MRE11. […] The fluorescence increases upon substrate cleavage by MRE11, when separation of the two labels occur.
The conditions of the assay are as follows:
Total reaction volume: 5 μL
DNA substrate concentration in the reaction: 40 nM
Inhibitor concentration range tested: 7 nM-50 μM
Each plate contains a series of high and low signal control wells, where no compound is added:
High signal: MRE11+DNA substrate
Low signal: DNA substrate only
These are used during data evaluation.
Two Extra Assay Controls:
1) To check whether unwinding of DNA by the compounds alone occurs.
The DNA substrate [CY5+BBQ(650)] is mixed with the compounds with no protein present.
The CY5 single stranded oligo is mixed with the compounds with no protein present.
The layout of the plates is created by the in-house software (CZ-Openscreen Prague) and this information is transferred to the robotic HTS station.
The reaction is started by the addition of DNA and the reaction time is counted from that moment, including a 15 min delay. Ten timepoints are measured:
The assay data analysis was performed at t=4 h. This corresponds to the time when the reaction is close to its maximum.
The data analysis was performed using the in-house software (CZ-Openscreen Prague) to obtain IC50 for each compound.

Bounds are passed on as bounds.

MRE11, sequence (P49959 whole entry): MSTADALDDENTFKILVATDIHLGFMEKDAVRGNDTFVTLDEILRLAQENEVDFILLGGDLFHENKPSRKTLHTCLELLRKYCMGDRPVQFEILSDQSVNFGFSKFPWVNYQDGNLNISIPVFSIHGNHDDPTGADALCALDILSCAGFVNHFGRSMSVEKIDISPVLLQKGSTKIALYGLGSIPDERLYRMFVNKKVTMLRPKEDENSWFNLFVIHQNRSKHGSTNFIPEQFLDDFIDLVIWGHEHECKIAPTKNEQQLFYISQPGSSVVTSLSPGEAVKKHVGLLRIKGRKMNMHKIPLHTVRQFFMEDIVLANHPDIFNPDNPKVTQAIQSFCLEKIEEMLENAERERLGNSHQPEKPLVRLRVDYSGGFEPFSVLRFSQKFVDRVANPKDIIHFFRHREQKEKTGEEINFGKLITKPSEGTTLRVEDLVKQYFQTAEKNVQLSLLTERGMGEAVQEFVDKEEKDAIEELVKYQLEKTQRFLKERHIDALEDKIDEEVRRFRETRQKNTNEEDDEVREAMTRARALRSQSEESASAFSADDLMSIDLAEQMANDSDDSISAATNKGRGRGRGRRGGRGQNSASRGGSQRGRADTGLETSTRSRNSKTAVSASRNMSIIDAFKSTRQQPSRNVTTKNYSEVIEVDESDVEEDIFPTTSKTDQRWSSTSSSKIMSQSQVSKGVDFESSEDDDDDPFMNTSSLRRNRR

Compound `CC(=O)Nc1ccc(CC(C#N)C(=O)Nc2nc(-c3ccccc3)cs2)cc1` (stereo not drawn) [Preparative Example 128, 3-(4-acetamidophenyl)-2-cyano-N-(4-phenylthiazol-2-yl)propanamide] displayed an inhibition at 25 µM in the experiment with DR-GFP U2OS cells of 50 to 75%. Consider `N#Cc1ccc(-c2csc(NC(=O)C(C#N)Cc3ccc(O)c(O)c3)n2)cc1` (stereo not drawn) [Preparative Example 131, 2-cyano-N-(4-(4-cyanophenyl)thiazol-2-yl)-3-(3,4-dihydroxyphenyl)propanamide], for which the IC50 on MRE11 lay within 2 to 10 µM. This compound came in with an inhibition at 25 µM with DR-GFP U2OS cells of 50 to 75%.

`N#CC(Cc1ccc(O)c(O)c1)C(=O)Nc1nc(-c2ccc(C(F)(F)F)cc2)cs1` (stereo not drawn) [Preparative Example 132, 2-cyano-3-(3,4-dihydroxyphenyl)-N-(4-(4-(trifluoromethyl)phenyl)thiazol-2-yl)propanamide] came in with an IC50 against MRE11 of 2 to 10 µM. Also, the inhibition at 25 µM in the experiment on DR-GFP U2OS cells was above 75%.

`Cc1ccc(-c2csc(NC(=O)C(C#N)Cc3ccc(O)c(O)c3)n2)cc1` (stereo not drawn) [Preparative Example 133, 2-cyano-3-(3,4-dihydroxyphenyl)-N-(4-(p-tolyl)thiazol-2-yl)propanamide] had an IC50 on MRE11 of 2 to 10 µM. Further, the inhibition at 25 µM in the experiment with DR-GFP U2OS cells was below 50%.

In the case of `N#CC(Cc1cc(Cl)c(O)c(Cl)c1)C(=O)Nc1nc(-c2ccccc2)c(-c2ccccc2)s1` (stereo not drawn) [Preparative Example 134, 2-cyano-3-(3,5-dichloro-4-hydroxyphenyl)-N-(4,5-diphenylthiazol-2-yl)propanamide], the IC50 at MRE11 was 2 to 10 µM. The compound also had an inhibition at 25 µM in the experiment on DR-GFP U2OS cells below 50%. On the same counts, the results for `Cc1ccc(-c2sc(NC(=O)C(C#N)Cc3ccc(O)c(O)c3)nc2-c2ccccc2)cc1` (stereo not drawn) [Preparative Example 135, 2-cyano-3-(3,4-dihydroxyphenyl)-N-(4-phenyl-5-(p-tolyl)thiazol-2-yl)propanamide] are below 2 µM and above 75%.

In turn, `N#CC(Cc1cc(Cl)c(O)c(Cl)c1)C(=O)Nc1nc(-c2ccc(OC(F)(F)F)cc2)cs1` (stereo not drawn) [Preparative Example 137, 2-cyano-3-(3,5-dichloro-4-hydroxyphenyl)-N-(4-(4-(trifluoromethoxy)phenyl)thiazol-2-yl)propanamide] yielded an IC50 against MRE11 of 2 to 10 µM. Further, the inhibition at 25 µM in the experiment on DR-GFP U2OS cells is below 50%. For `N#CC(Cc1ccc(O)c(O)c1)C(=O)Nc1nc(-c2cccc(-c3ccccc3)c2)cs1` (stereo not drawn) [Preparative Example 138, N-(4-([1,1′-biphenyl]-3-yl)thiazol-2-yl)-2-cyano-3-(3,4-dihydroxyphenyl)propanamide] the same measures were 2 to 10 µM and above 75%. `N#CC(Cc1ccc2nc[nH]c2c1)C(=O)Nc1nc(-c2ccccc2)cs1` (stereo not drawn) [Preparative Example 142, 3-(1H-benzo[d]imidazol-6-yl)-2-cyano-N-(4-phenylthiazol-2-yl)propanamide] had an IC50 at MRE11 of 10 to 90 µM. The inhibition at 25 µM in the experiment on DR-GFP U2OS cells is below 50%. On the same counts, the results for `N#CC(Cc1cc(Cl)c(O)c(Cl)c1)C(=O)Nc1nc(-c2ccc3ccccc3c2)cs1` (stereo not drawn) [Preparative Example 143, 2-cyano-3-(3,5-dichloro-4-hydroxyphenyl)-N-(4-(naphthalen-2-yl)thiazol-2-yl)propanamide] are 2 to 10 µM and below 50%. On the same counts, the results for `N#CC(Cc1ccc(O)c(O)c1)C(=O)Nc1nc(-c2ccsc2)cs1` (stereo not drawn) [Preparative Example 145, 2-cyano-3-(3,4-dihydroxyphenyl)-N-(4-(thiophen-3-yl)thiazol-2-yl)propanamide] are 2 to 10 µM and below 50%.

Consider `N#CC(Cc1ccc(O)c(O)c1)C(=O)Nc1nc(-c2ccccc2)c(C2CCCCC2)s1` (stereo not drawn) [Preparative Example 146, 2-cyano-N-(5-cyclohexyl-4-phenylthiazol-2-yl)-3-(3,4-dihydroxyphenyl)propanamide], for which the IC50 at MRE11 was 2 to 10 µM. In addition, in the experiment with DR-GFP U2OS cells, the inhibition at 25 µM was above 75%. As to `Cc1cc(CC(C#N)C(=O)Nc2nc(-c3ccccc3)cs2)cc(C)c1O` (stereo not drawn) [Preparative Example 147, 2-cyano-3-(4-hydroxy-3,5-dimethylphenyl)-N-(4-phenylthiazol-2-yl)propanamide], the IC50 on MRE11 was in the range of 10 to 90 µM. The inhibition at 25 µM in the experiment on DR-GFP U2OS cells lay in the range of 50 to 75%. `Cc1cc(CC(C#N)C(=O)Nc2nc(-c3ccc(C(C)(C)C)cc3)cs2)cc(C)c1O` (stereo not drawn) [Preparative Example 149, N-(4-(4-(tert-butyl)phenyl)thiazol-2-yl)-2-cyano-3-(4-hydroxy-3,5-dimethylphenyl)propanamide] returned an IC50 against MRE11 of 10 to 90 µM. The compound also gave an inhibition at 25 µM in the experiment with DR-GFP U2OS cells above 75%. In the experiment with DR-GFP U2OS cells, `CC(C)(C)c1ccc(-c2csc(NC(=O)C(C#N)Cc3cc(C(C)(C)C)c(O)c(C(C)(C)C)c3)n2)cc1` (stereo not drawn) [Preparative Example 150, N-(4-(4-(tert-butyl)phenyl)thiazol-2-yl)-2-cyano-3-(3,5-di-tert-butyl-4-hydroxyphenyl)propanamide] registered an inhibition at 25 µM above 75%. As to `N#Cc1cc(CC(C#N)C(=O)Nc2nc(-c3ccccc3)cs2)ccc1O` (stereo not drawn) [Preparative Example 151, 2-cyano-3-(3-cyano-4-hydroxyphenyl)-N-(4-phenylthiazol-2-yl)propanamide], the 50% inhibitory concentration (IC50) against MRE11 was in the range of 10 to 90 µM. The same compound gave an inhibition at 25 µM in the experiment on DR-GFP U2OS cells below 50%. For `Cc1cc(-c2csc(NC(=O)C(C#N)Cc3ccc(O)c(O)c3)n2)cs1` (stereo not drawn) [Preparative Example 152, 2-cyano-3-(3,4-dihydroxyphenyl)-N-(4-(5-methylthiophen-3-yl)thiazol-2-yl)propanamide] the same measures were 2 to 10 µM and below 50%. For `N#CC(Cc1ccc(O)c(O)c1)C(=O)Nc1nc(-c2ccc3c(c2)CCCC3)cs1` (stereo not drawn) [Preparative Example 153, 2-cyano-3-(3,4-dihydroxyphenyl)-N-(4-(5,6,7,8-tetrahydronaphthalen-2-yl)thiazol-2-yl)propanamide] the same measures were 2 to 10 µM and above 75%.

The compound `N#CC(Cc1ccc(O)c(O)c1)C(=O)Nc1nc(-c2ccc(C3CCCCC3)cc2)cs1` (stereo not drawn) [Preparative Example 154, 2-cyano-N-(4-(4-cyclohexylphenyl)thiazol-2-yl)-3-(3,4-dihydroxyphenyl)propanamide] had an IC50 against MRE11 of 2 to 10 µM. In the experiment with DR-GFP U2OS cells, this compound returned an inhibition at 25 µM above 75%.

In the case of `Cc1cc(CC(C#N)C(=O)Nc2nc(-c3ccccc3)cs2)cc(Cl)c1O` (stereo not drawn) [Preparative Example 155, 3-(3-chloro-4-hydroxy-5-methylphenyl)-2-cyano-N-(4-phenylthiazol-2-yl)propanamide], the IC50 against MRE11 is 10 to 90 µM. The inhibition at 25 µM with DR-GFP U2OS cells was below 50%.

Consider `N#CC(Cc1cc(F)c(O)c(Cl)c1)C(=O)Nc1nc(-c2ccccc2)cs1` (stereo not drawn) [Preparative Example 156, 3-(3-chloro-5-fluoro-4-hydroxyphenyl)-2-cyano-N-(4-phenylthiazol-2-yl)propanamide], for which the IC50 against MRE11 was in the range of 2 to 10 µM. The inhibition at 25 µM in the experiment with DR-GFP U2OS cells was below 50%. As to `N#CC(Cc1cc(C(F)(F)F)cc(C(F)(F)F)c1)C(=O)Nc1nc(-c2ccccc2)cs1` (stereo not drawn) [Preparative Example 163, 3-(3,5-bis(trifluoromethyl)phenyl)-2-cyano-N-(4-phenylthiazol-2-yl)propanamide], the inhibition at 25 µM with DR-GFP U2OS cells is above 75%. The same measure, in the same setting: as for `CC(c1ccc(O)c(O)c1)C(C#N)C(=O)Nc1nc(-c2ccccc2)cs1` (stereo not drawn) [Preparative Example 177, 2-cyano-3-(3,4-dihydroxyphenyl)-N-(4-phenylthiazol-2-yl)butanamide], the figure is 50 to 75%.

The record behind these values is patent US11453663B2, “Substituted propanamides as inhibitors of nucleases” (MASARYKOVA UNIVERZITA, priority 2018, dated 2022).
